Measured values as given in PubChem BioAssay (NCI).
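Exposure lasted 48 hours, with cells grown in 96-well plates and compounds tested at five concentrations. TGI is the concentration that stops growth completely.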

Assays:
Assay in all cases: NCI tumour cell line growth inhibition, 48 h
RPMI-8226 leukemia = test system: RPMI-8226 leukemia
KM20L2 colon = test system: KM20L2 colon
HL-60(TB) leukemia = test system: HL-60(TB) leukemia
UO-31 renal = test system: UO-31 renal
RXF 393 renal = test system: RXF 393 renal
SK-MEL-2 melanoma = test system: SK-MEL-2 melanoma
HOP-92 NSCLC = test system: HOP-92 NSCLC
IGROV1 ovarian = test system: IGROV1 ovarian
DMS 114 small cell lung = test system: DMS 114 small cell lung
SNB-19 CNS = test system: SNB-19 CNS
HCT-116 colon = test system: HCT-116 colon
SK-MEL-28 melanoma = test system: SK-MEL-28 melanoma
A549 NSCLC = test system: A549 NSCLC
HCC-2998 colon = test system: HCC-2998 colon
HCT-15 colon = test system: HCT-15 colon
NCI-H460 lung = test system: NCI-H460 lung
NCI-H226 lung = test system: NCI-H226 lung
HOP-18 NSCLC = test system: HOP-18 NSCLC
KM12 colon = test system: KM12 colon
COLO 205 colon = test system: COLO 205 colon
DLD-1 colon = test system: DLD-1 colon
A498 renal = test system: A498 renal
SF-295 CNS = test system: SF-295 CNS
RXF-631 renal = test system: RXF-631 renal
MALME-3M melanoma = test system: MALME-3M melanoma
M14 melanoma = test system: M14 melanoma
SF-539 CNS = test system: SF-539 CNS
NCI-H522 lung = test system: NCI-H522 lung
LOX IMVI melanoma = test system: LOX IMVI melanoma
CCRF-CEM leukemia = test system: CCRF-CEM leukemia
UACC-62 melanoma = test system: UACC-62 melanoma
OVCAR-3 ovarian = test system: OVCAR-3 ovarian
LXFL 529 NSCLC = test system: LXFL 529 NSCLC
SN12C renal = test system: SN12C renal
MOLT-4 leukemia = test system: MOLT-4 leukemia
EKVX NSCLC = test system: EKVX NSCLC
HT29 colon = test system: HT29 colon
SK-MEL-5 melanoma = test system: SK-MEL-5 melanoma
SNB-75 CNS = test system: SNB-75 CNS
DMS 273 small cell lung = test system: DMS 273 small cell lung
CAKI-1 renal = test system: CAKI-1 renal
SNB-78 CNS = test system: SNB-78 CNS
M19-MEL melanoma = test system: M19-MEL melanoma
K-562 leukemia = test system: K-562 leukemia
XF 498 CNS = test system: XF 498 CNS
SW-620 colon = test system: SW-620 colon
U251 CNS = test system: U251 CNS
OVCAR-8 ovarian = test system: OVCAR-8 ovarian
SK-OV-3 ovarian = test system: SK-OV-3 ovarian
NCI-H23 lung = test system: NCI-H23 lung
TK-10 renal = test system: TK-10 renal
786-0 renal = test system: 786-0 renal
ACHN renal = test system: ACHN renal
SF-268 CNS = test system: SF-268 CNS
OVCAR-4 ovarian = test system: OVCAR-4 ovarian
SR leukemia = test system: SR leukemia
OVCAR-5 ovarian = test system: OVCAR-5 ovarian
UACC-257 melanoma = test system: UACC-257 melanoma
HOP-62 NSCLC = test system: HOP-62 NSCLC

Compound: CCOC(=O)/C(ON)=C(/CC/C(C(=O)OC)=C(\ON)C(=O)OCC)C(=O)OC
- TGI (RPMI-8226 leukemia): > 100 µM
- TGI (KM20L2 colon): > 100 µM
- TGI (HL-60(TB) leukemia): > 100 µM
- TGI (UO-31 renal): > 100 µM
- TGI (RXF 393 renal): > 100 µM
- TGI (SK-MEL-2 melanoma): > 100 µM
- TGI (HOP-92 NSCLC): > 100 µM
- TGI (IGROV1 ovarian): > 100 µM
- TGI (DMS 114 small cell lung): > 100 µM
- TGI (SNB-19 CNS): > 100 µM
- TGI (HCT-116 colon): > 100 µM
- TGI (SK-MEL-28 melanoma): > 100 µM
- TGI (A549 NSCLC): > 100 µM
- TGI (HCC-2998 colon): > 100 µM
- TGI (HCT-15 colon): > 100 µM
- TGI (NCI-H460 lung): > 100 µM
- TGI (NCI-H226 lung): > 100 µM
- TGI (HOP-18 NSCLC): > 100 µM
- TGI (KM12 colon): > 100 µM
- TGI (COLO 205 colon): > 100 µM
- TGI (DLD-1 colon): > 100 µM
- TGI (A498 renal): > 100 µM
- TGI (SF-295 CNS): > 100 µM
- TGI (RXF-631 renal): > 100 µM
- TGI (MALME-3M melanoma): > 100 µM
- TGI (M14 melanoma): > 100 µM
- TGI (SF-539 CNS): > 100 µM
- TGI (NCI-H522 lung): > 100 µM
- TGI (LOX IMVI melanoma): > 100 µM
- TGI (CCRF-CEM leukemia): > 100 µM
- TGI (UACC-62 melanoma): > 100 µM
- TGI (OVCAR-3 ovarian): > 100 µM
- TGI (LXFL 529 NSCLC): > 100 µM
- TGI (SN12C renal): > 100 µM
- TGI (MOLT-4 leukemia): > 100 µM
- TGI (EKVX NSCLC): > 100 µM
- TGI (HT29 colon): > 100 µM
- TGI (SK-MEL-5 melanoma): > 100 µM
- TGI (SNB-75 CNS): > 100 µM
- TGI (DMS 273 small cell lung): > 100 µM
- TGI (CAKI-1 renal): > 100 µM
- TGI (SNB-78 CNS): > 100 µM
- TGI (M19-MEL melanoma): > 100 µM
- TGI (K-562 leukemia): > 100 µM
- TGI (XF 498 CNS): > 100 µM
- TGI (SW-620 colon): > 100 µM
- TGI (U251 CNS): > 100 µM
- TGI (OVCAR-8 ovarian): > 100 µM
- TGI (SK-OV-3 ovarian): > 100 µM
- TGI (NCI-H23 lung): > 100 µM
- TGI (TK-10 renal): > 100 µM
- TGI (786-0 renal): > 100 µM
- TGI (ACHN renal): > 100 µM
- TGI (SF-268 CNS): > 100 µM
- TGI (OVCAR-4 ovarian): > 100 µM
- TGI (SR leukemia): > 100 µM
- TGI (OVCAR-5 ovarian): > 100 µM
- TGI (UACC-257 melanoma): > 100 µM
- TGI (HOP-62 NSCLC): > 100 µM

Compound: CCOc1ccc(Nc2nc(C)c(C(=O)/C=C/c3ccc(Cl)cc3Cl)s2)cc1
- TGI (RPMI-8226 leukemia): > 100 µM
- TGI (KM20L2 colon): 52.2 µM
- TGI (HL-60(TB) leukemia): 65.6 µM
- TGI (UO-31 renal): 51 µM
- TGI (RXF 393 renal): 40.6 µM
- TGI (SK-MEL-2 melanoma): 61.6 µM
- TGI (HOP-92 NSCLC): 68.3 µM
- TGI (IGROV1 ovarian): 85.1 µM
- TGI (DMS 114 small cell lung): 56.5 µM
- TGI (SNB-19 CNS): > 100 µM
- TGI (HCT-116 colon): 38.3 µM
- TGI (SK-MEL-28 melanoma): 51 µM
- TGI (A549 NSCLC): 45.9 µM
- TGI (HCC-2998 colon): 43.9 µM
- TGI (HCT-15 colon): 48.6 µM
- TGI (NCI-H460 lung): 42.6 µM
- TGI (NCI-H226 lung): 36.9 µM
- TGI (HOP-18 NSCLC): 66.7 µM
- TGI (KM12 colon): 33.5 µM
- TGI (COLO 205 colon): 32.3 µM
- TGI (DLD-1 colon): 84.5 µM
- TGI (A498 renal): 50.5 µM
- TGI (SF-295 CNS): 38.5 µM
- TGI (RXF-631 renal): 54.8 µM
- TGI (MALME-3M melanoma): 62.7 µM
- TGI (M14 melanoma): 50.1 µM
- TGI (SF-539 CNS): 78.8 µM
- TGI (NCI-H522 lung): 43.2 µM
- TGI (LOX IMVI melanoma): 31.8 µM
- TGI (CCRF-CEM leukemia): 80.2 µM
- TGI (UACC-62 melanoma): 77.4 µM
- TGI (OVCAR-3 ovarian): 41 µM
- TGI (LXFL 529 NSCLC): 37.5 µM
- TGI (SN12C renal): 37.1 µM
- TGI (MOLT-4 leukemia): 51.5 µM
- TGI (EKVX NSCLC): 85.7 µM
- TGI (HT29 colon): 39.4 µM
- TGI (SK-MEL-5 melanoma): 38.8 µM
- TGI (SNB-75 CNS): 39.3 µM
- TGI (DMS 273 small cell lung): 45 µM
- TGI (CAKI-1 renal): 55.4 µM
- TGI (SNB-78 CNS): 67.9 µM
- TGI (M19-MEL melanoma): 47.4 µM
- TGI (K-562 leukemia): 93.5 µM
- TGI (XF 498 CNS): 39.1 µM
- TGI (SW-620 colon): 38.7 µM
- TGI (U251 CNS): 37.9 µM
- TGI (OVCAR-8 ovarian): 40.7 µM
- TGI (SK-OV-3 ovarian): 54.3 µM
- TGI (NCI-H23 lung): 44.1 µM
- TGI (TK-10 renal): 52.6 µM
- TGI (786-0 renal): 36.3 µM
- TGI (ACHN renal): 71 µM
- TGI (SF-268 CNS): 77.3 µM
- TGI (OVCAR-4 ovarian): 28.7 µM
- TGI (SR leukemia): 71.2 µM
- TGI (OVCAR-5 ovarian): > 100 µM
- TGI (UACC-257 melanoma): 53.8 µM
- TGI (HOP-62 NSCLC): 81.3 µM
